The target in one assay is recombinant human renin (Homo sapiens (Human), UniProt P00797). As to the kind of experiment: In-vitro fluorescence assay for identification of renin-inhibitory activity. Type of assay: biochemical. Conditions: recombinant human renin 10 nM, pH 7.2; read-out: Renin selectivity IC50. The protocol:
In order to identify modulators of renin activity, a continuous enzymatic test was carried out with a synthetic peptide which carries a fluorescent group Edans (=(5-(aminoethyl)aminonaphthalenesulfonate) which is quenched by energy transfer from a Dabcyl (4′-dimethylaminoazobenzene-4-carboxylate) group on the same molecule, in Greiner 384-well microtitre plates. Cleavage of the peptidic substrate by renin causes an increase in the fluorescence intensity. In order to determine the efficacy of substances, the time-dependent increase in the fluorescence intensity in the presence of the substance was compared with the time-dependent increase in fluorescence in the absence of substances. The reference substance used was renin inhibitor 2 (Z-Arg-Arg-Pro-Phe-His-Sta-Ile-His N-Boc-Lys methyl ester Z) (Sigma-Aldrich). The substrate used was renin FRET substrate I (DABCYL-g-Abu-[…]EDANS) (Anaspec, Fremont Calif.). The enzyme employed was recombinant human renin (Proteos, Kalamazoo, Mich.) in a final concentration of 10 nM. The test was carried out in 50 mM Mops buffer, 1.5% (v/v) of DMSO, 0.1% (w/v) of Igepal®, pH 7.2, 0.5% (w/v) of BSA. 2 μl of each substance solution with serially diluted substance concentration were added to in each case 4 μl of renin solution and incubated at room temperature for 15 min. The reaction was started by addition of 4 μl of substrate solution (final concentration 5 μM). After carrying out a starting-point fluorescence measurement (excitation wavelength 340 nm/emission wavelength 495 nm) using an Envision multilabel reader (Perkin Elmer), the reaction was incubated at 37° C. for 60 min. The amount of peptide fragment cleaved off during the reaction time was subsequently measured by determination of the increase in the fluorescence intensity at 495 nm (excitation wavelength 340 nm).

Assay [1] deals with cathepsin D isolated from the human liver (Homo sapiens (Human), UniProt P07339). As to the kind of experiment: In-vitro fluorescence assay for identification of cathepsin D inhibitors. The format is biochemical. Conditions: cathepsin D 1.4 nM, pH 5.5; read-out: CatD assay IC50-. As to the method: In order to identify modulators of cathepsin D activity, a continuous enzymatic test was carried out with a synthetic peptide which carries a fluorescent group (MCA=(7-methoxycoumarin-4-yl)acetyl) which is quenched by energy transfer from a Dpn (2,4 dinitrophenyl) group on the same molecule, in Greiner 384-well nb microtitre plates. Cleavage of the peptidic substrate by cathepsin D causes an increase in the fluorescence intensity. In order to determine the efficacy of substances, the time-dependent increase in the fluorescence intensity in the presence of the substance was compared with the time-dependent increase in fluorescence in the absence of substances. The reference substance used was pepstatin A (Sigma-Aldrich). The substrate used was […](Dnp)d-R—NH2 (Enzo Life Sciences, Lörrach). The enzyme employed was cathepsin D isolated from the human liver (Sigma-Aldrich) in a final concentration of 1.4 nM. The test was carried out in 100 mM sodium acetate buffer, 1.25% (v/v) of DMSO, 0.25% (w/v) of Chaps, pH 5.5. 2 μl of each substance solution with serially diluted substance concentration were added to in each case 4 μl of cathepsin D solution and incubated at room temperature for 10 min. The reaction was started by addition of 2 μl of substrate solution (final concentration 5 μM). After carrying out a starting-point fluorescence measurement (excitation wavelength 340 nm/emission wavelength 450 nm) using an Envision multilabel reader (Perkin Elmer), the reaction was incubated at room temperature for 60 min. The amount of peptide fragment cleaved off during the reaction time was subsequently measured by determination of the increase in the fluorescence intensity at 450 nm (excitation wavelength 340 nm).
cathepsin D isolated from the human liver, sequence (P07339 65-161): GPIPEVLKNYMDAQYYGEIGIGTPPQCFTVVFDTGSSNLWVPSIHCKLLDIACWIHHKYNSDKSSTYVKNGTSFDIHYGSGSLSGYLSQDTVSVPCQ
cathepsin D isolated from the human liver, sequence (P07339 169-412): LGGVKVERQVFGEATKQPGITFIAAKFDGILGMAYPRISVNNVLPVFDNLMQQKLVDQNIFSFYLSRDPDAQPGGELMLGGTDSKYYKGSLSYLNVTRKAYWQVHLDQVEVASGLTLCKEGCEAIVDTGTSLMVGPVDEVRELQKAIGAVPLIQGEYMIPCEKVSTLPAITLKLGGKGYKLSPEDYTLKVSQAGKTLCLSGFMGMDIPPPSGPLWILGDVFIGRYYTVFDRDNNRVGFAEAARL

Numbered stars: 1 amine (or outer) side, 2 acyl side, 3 side chain; on linkers, the order of the positions; unused ones are H or OH. Square brackets hold non-standard residues; d marks the D form. Peptide text beside a SMILES is read from it. * marks the point of attachment. X1 = N[C@@H](CC(=O)[*:2])[C@H](Cc1ccccc1)N[*:1]; 1Nal = N[C@@H](Cc1cccc2ccccc12)C(=O)O; Tle = CC(C)(C)[C@H](N)C(=O)O; Isovaleryl = CC(C)CC(=O)*; Abu = CC[C@H](N)C(=O)O; Ac3c = NC1(C(=O)O)CC1

A word on the IC50: it is the concentration that inhibits the measured activity by half.

recombinant human renin, sequence (P00797 67-406): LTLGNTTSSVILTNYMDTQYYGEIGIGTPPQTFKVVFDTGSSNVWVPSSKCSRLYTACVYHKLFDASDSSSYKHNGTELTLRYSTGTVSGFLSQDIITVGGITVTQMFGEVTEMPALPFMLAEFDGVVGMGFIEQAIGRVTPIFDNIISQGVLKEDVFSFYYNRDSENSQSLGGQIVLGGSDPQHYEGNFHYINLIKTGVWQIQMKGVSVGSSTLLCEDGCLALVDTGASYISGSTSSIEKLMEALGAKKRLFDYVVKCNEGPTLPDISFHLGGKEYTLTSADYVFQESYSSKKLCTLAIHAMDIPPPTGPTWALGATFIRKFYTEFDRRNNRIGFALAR

In the case of `CCc1cccc(CC)c1NC(=O)C[C@H](N)[C@H](Cc1ccccc1)NC(=O)[C@@H](NC(=O)[C@H](CC(C)C)NC(=O)CC(C)C)C(C)C` [Compound 38, N-(2,6-Diethylphenyl)-(3S,4S)-3-amino-4-{(S)-3-methyl-2-[(S)-4-methyl-2-(3-methyl-butyrylamino)pentanoylamino]butyryl-amino}-5-phenylpentanamide], the IC50 at recombinant human renin was > 30 µM; in assay [1], 230 nM.

Take `COC(=O)[C@@H](NC(=O)[C@H](Cc1ccccc1)NC(=O)C[C@H](N)[C@H](Cc1ccccc1)NC(=O)[C@@H](NC(=O)[C@H](CC(C)C)NC(=O)CC(C)C)C(C)C)C(C)C` [Compound 15, Methyl (S)-2-[(S)-2-((3S,4S)-3-amino-4-{(S)-3-methyl-2-[(S)-4-methyl-2-(3-methyl-butyrylamino)pentanoylamino]butyryl-amino)-5-phenylpentanoylamino)-3-phenyl-propionylamino]-3-methylbutyrate] (Isovaleryl-LV[X1]FV-OMe): the IC50 on recombinant human renin was > 30 µM; in assay [1] it was 5.7 nM.

As to `CCc1cccc(CC)c1NC(=O)C[C@H](N)[C@H](Cc1ccccc1)NC(=O)[C@@H](NC(=O)CCCc1ccccc1)C(C)C` [Compound 40, N-(2,6-Diethylphenyl)-(3S,4S)-3-amino-4-[(S)-3-methyl-2-(4-phenylbutyrylamino)butyrylamino]-5-phenylpentanamide], the IC50 was > 30 µM at recombinant human renin and 800 nM in assay [1].

As for `CC[C@H](C)[C@H](NC(=O)C[C@H](N)[C@H](Cc1ccccc1)NC(=O)[C@@H](NC(=O)[C@H](CC(C)C)NC(=O)CC(C)C)C(C)C)C(=O)NCC1CC1` [Compound 30, N-[(1S,2S)-1-(Cyclopropylmethyl-carbamoyl)-2-methylbutyl]-(S)-3-(S)-amino-4-{(S)-3-methyl-2-[(S)-4-methyl-2-(3-methylbutyrylamino)-pentanoylamino]butyrylamino}-5-phenylpentanamide], the results for the IC50 (at recombinant human renin; in assay [1]) were > 30 µM and 400 nM, respectively.

`CC(C)CC(=O)N[C@@H](CC(C)C)C(=O)N[C@H](C(=O)N[C@@H](Cc1ccccc1)[C@@H](N)CC(=O)N[C@H](COc1cccnc1)C(C)C)C(C)C` [Compound 43, N-[(S)-2-Methyl-1-(pyridin-3-yloxymethyl)propyl]-(3S,4S)-3-amino-4-{(S)-3-methyl-2-[(S)-4-methyl-2-(3-methylbutyrylamino)-pentanoylamino]butyrylamino}-5-phenylpentanamide]: the IC50 was > 30 µM on recombinant human renin and 240 nM in assay [1].

Consider `CC[C@H](C)[C@H](NC(=O)C[C@H](N)[C@H](Cc1ccccc1)NC(=O)[C@@H](NC(=O)[C@H](CC(C)C)NC(=O)CC(C)C)C(C)C)C(=O)NCc1ccccc1` [Compound 29, N-((1S,2S)-1-Benzylcarbamoyl-2-methylbutyl)-(S)-3-amino-4-{(S)-(S)-3-methyl-2-[(S)-4-methyl-2-(3-methylbutyrylamino)-pentanoylamino]butyrylamino}-5-phenylpentanamide], for which the IC50 on recombinant human renin was > 30 µM; in assay [1], 180 nM.

For the compound `CC[C@H](C)[C@H](NC(=O)C[C@H](N)[C@H](Cc1ccccc1)NC(=O)[C@@H](NC(=O)[C@H](CC(C)C)NC(=O)CC(C)C)C(C)C)C(=O)N[C@@H](CC(C)C)C(=O)OC` [Compound 14, Methyl (S)-2-[(2S,3S)-2-((S)-3-(S)-amino-4-{(S)-3-methyl-2-[(S)-4-methyl-2-(3-methyl-butyrylamino)pentanoylamino]butyryl-amino}-5-phenylpentanoylamino)-3-methylpentanoylamino]-4-methylpentanoate] (Isovaleryl-LV[X1]IL-OMe), the 50% inhibitory concentration (IC50) is > 30 µM on recombinant human renin and 160 nM in assay [1].

With `CC(C)CC(=O)N[C@@H](CC(C)C)C(=O)N[C@H](C(=O)N[C@@H](Cc1ccccc1)[C@@H](N)CC(=O)N[C@H](COc1ccc(F)cc1F)C(C)C)C(C)C` [Compound 44, N-[(S)-1-(2,4-Difluorophenoxymethyl)-2-methylpropyl]-(3S,4S)-3-amino-4-{(S)-3-methyl-2-[(S)-4-methyl-2-(3-methylbutyryl-amino)pentanoylamino]butyrylamino}-5-phenylpentanamide], the IC50 is > 30 µM on recombinant human renin and 39 nM in assay [1].

As to `CCOC(=O)C1(NC(=O)[C@@H](NC(=O)C[C@H](N)[C@H](Cc2ccccc2)NC(=O)[C@@H](NC(=O)[C@H](CC(C)C)NC(=O)CC(C)C)C(C)C)[C@@H](C)CC)CC1` [Compound 12, Ethyl 1-[(2S,3S)-2-((S)-3-(S)-amino-4-((S)-3-methyl-2-[(S)-4-methyl-2-(3-methyl-butyrylamino)pentanoylamino]butyryl-amino}-5-phenylpentanoylamino)-3-methyl-pentanoylamino] cyclopropanecarboxylate] (Isovaleryl-LV[X1]I[Ac3c]-OEt), the IC50 is > 30 µM on recombinant human renin and 110 nM in assay [1].

Take `COC(=O)[C@@H](NC(=O)[C@H](Cc1cccc2ccccc12)NC(=O)C[C@H](N)[C@H](Cc1ccccc1)NC(=O)[C@@H](NC(=O)[C@H](CC(C)C)NC(=O)CC(C)C)C(C)C)C(C)C` [Compound 28, Methyl (S)-2-[(S)-2-((3S,4S)-3-amino-4-{(S)-3-methyl-2-[(S)-4-methyl-2-(3-methyl-butyrylamino)pentanoylamino]butyryl-amino}-5-phenylpentanoylamino)-3-naphthalen-1-ylpropionylamino]-3-methylbutyrate] (Isovaleryl-LV[X1][1Nal]V-OMe): the results for the IC50 (at recombinant human renin; in assay [1]) were > 30 µM and 3.7 nM, respectively.

Consider `CC[C@H](C)[C@H](NC(=O)C[C@H](N)[C@H](Cc1ccccc1)NC(=O)[C@@H](NC(=O)[C@H](CC(C)C)NC(=O)CC(C)C)C(C)(C)C)C(=O)N[C@H](C(=O)OC)C(C)C` [Compound 31, Methyl (S)-2-[(2S,3S)-2-((3S,4S)-3-amino-4-{(S)-3,3-dimethyl-2-[(S)-4-methyl-2-(3-methylbutyrylamino)pentanoylamino]-butyrylamino}-5-phenylpentanoylamino)-3-methylpentanoylamino]-3-methylbutyrate] (Isovaleryl-L[Tle][X1]IV-OMe), for which the IC50 at recombinant human renin is > 30 µM; in assay [1], 120 nM.

Consider `CC[C@H](NC(=O)[C@@H](N)CC(C)C)C(=O)N[C@@H](Cc1ccccc1)[C@@H](N)CC(=O)N[C@H](C(=O)N[C@H](C(=O)OC)C(C)C)[C@@H](C)CC` [Compound 2, Methyl (S)-2-((2S,3S)-2-{(3S,4S)-3-amino-4-[(S)-2-((S)-2-amino-4-methylpentanoylamino)butyrylamino]-5-phenylpentanoylamino}-3-methylpentanoylamino)-3-methyl-butyrate] (H-L[Abu][X1]IV-OMe), for which the IC50 on recombinant human renin is > 30 µM; in assay [1] it was 2000 nM.

Take `CC(C)CCNC(=O)[C@H](C)NC(=O)C[C@H](N)[C@H](Cc1ccccc1)NC(=O)[C@@H](NC(=O)Cc1cccc(OC(F)(F)F)c1)C(C)C` [Compound 35, N-[(S)-1-(3-Methylbutylcarbamoyl)-ethyl]-(3S,4S)-3-amino-4-{(S)-3-methyl-2-[2-(3-trifluoromethoxyphenyl)acetylamino]-butyrylamino}-5-phenylpentanamide]: the IC50 on recombinant human renin is > 30 µM; in assay [1] it was 190 nM.

Consider `CC[C@H](NC(=O)[C@H](CC(C)C)NC(=O)CC(C)C)C(=O)N[C@@H](Cc1ccccc1)[C@@H](N)CC(=O)NCCc1ccc(Cl)c(Cl)c1` [Compound 6, N-[2-(3,4-Dichlorophenyl)ethyl]-(3S,4S)-3-amino-4-{(S)-2-[(S)-4-methyl-2-(3-methyl-butyrylamino)pentanoylamino]butyryl-amino}-5-phenylpentanamide], for which the IC50 at recombinant human renin was > 30 µM; in assay [1], 1200 nM.

Values taken from patent US9345742B2, “Aminostatin derivatives for the treatment of arthrosis” (MERCK PATENT GMBH, priority 2011, dated 2016).
